The source of these data is US20260232821A1, “ALBUMIN CONJUGATE, METHOD FOR PRODUCING SAME, AND COMPOSITION FOR TARGETING, DIAGNOSING, OR TREATING CANCER COMPRISING SAME” (KYTECBIO CO., LTD., priority 2023, published 2026).

SMILES strings stand for the structures.

In experiment [1] the target is albumin (HSA) (Homo sapiens, UniProt P02768). Description: Binding ability evaluation: dissociation constant from fluorescence change with increasing albumin. To be noted: 100 nM boron-containing compound, 95 vol % PBS buffer and 5 vol % DMSO, stirred 2 hours, fluorescence at 530 nm. As for the experimental part:
100 nM boron-containing compound B1 and albumin (HSA) were mixed in 95 vol % PBS buffer and 5 vol % dimethyl sulfoxide (DMSO) and stirred for 2 hours. The change in fluorescence intensity (F.I.) was measured while increasing the concentration of the albumin, and the dissociation constant (Kd) calculated based thereon is shown in FIG. 2.
For example, 0:1 represents the case where 100 nM albumin (HSA) was used without using a boron-containing compound, 1:0 represents the case where 100 nM boron-containing compound B1 was used and no albumin (HSA) was used, 1:2 represents the case where 100 nM boron-containing compound B1 and 200 nM albumin (HSA) were used, and 1:16 represents the case where 100 nM boron-containing compound B1 and 1600 nM albumin (HSA) were used.
The dissociation constants (Kd) of boron-containing compounds B2 to B5 were calculated in the same method as used to produce boron-containing compound B1.

Experiment [2] in a line: Evaluation of ROS production according to lysine concentration. To be noted: 10 μM compound with about 1.0 mM monomeric lysine, PBS pH 7.4, light of about 530 nm. The method, then: • i) 1.0 mM lysine (hereinafter, Lys) was mixed in PBS buffer solution (pH 7.4) and irradiated with light of about 530 nm. The fluorescence generated over time was measured using a Scinco FS-2, and results thereof are shown in FIG. 7A. • ii) The result of mixing 10 μM boron-containing compound B3 instead of the 1.0 mM lysine (Lys) is shown in FIG. 7B, iii) the result of mixing 10 μM boron-containing compound B3 and 0.1 mM lysine (Lys) instead of the 1.0 mM lysine (Lys) is shown in FIG. 7C, and iv) the result of mixing 10 μM boron-containing compound B3 and 1.0 mM lysine (Lys) instead of the 1.0 mM lysine (Lys) is shown in FIG. 7D.

Sequence of albumin (HSA) (P02768 25-609): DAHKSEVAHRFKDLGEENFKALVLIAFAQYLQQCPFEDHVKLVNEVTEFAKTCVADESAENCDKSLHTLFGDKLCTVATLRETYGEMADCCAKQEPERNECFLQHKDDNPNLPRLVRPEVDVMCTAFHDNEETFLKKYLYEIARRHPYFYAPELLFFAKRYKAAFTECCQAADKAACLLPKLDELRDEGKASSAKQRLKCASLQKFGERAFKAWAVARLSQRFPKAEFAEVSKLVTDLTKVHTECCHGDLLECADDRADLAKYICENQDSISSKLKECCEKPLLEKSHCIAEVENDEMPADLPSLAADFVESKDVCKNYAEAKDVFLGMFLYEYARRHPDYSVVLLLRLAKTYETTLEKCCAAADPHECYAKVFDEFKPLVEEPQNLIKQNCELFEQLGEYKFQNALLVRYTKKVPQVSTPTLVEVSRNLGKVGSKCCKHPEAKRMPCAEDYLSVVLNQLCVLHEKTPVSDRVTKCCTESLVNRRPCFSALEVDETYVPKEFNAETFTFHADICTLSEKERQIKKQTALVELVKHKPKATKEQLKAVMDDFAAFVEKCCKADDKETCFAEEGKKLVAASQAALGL

As for `O=Cc1cc(Br)ccc1NCc1ccccc1B(O)O` [B2], the Kd (usually the constant that tells how readily two partners part at equilibrium) in experiment [1] amounted to 383 nM.

`O=Cc1cc2ccccc2cc1NCc1ccccc1B(O)O` [B3]: in experiment [1], binding was put at a Kd of 2480 nM. Also, the “reactive oxygen species generated when mixed with lysine” value in experiment [2] is recorded as “relatively large amount of reactive oxygen species is generated”.

`O=Cc1cc2c(cc1NCc1ccccc1B(O)O)OCO2` [B5]: the Kd in experiment [1] was 571 nM.

Regarding `O=C(c1ccccc1)c1ccccc1NCc1ccccc1B(O)O` [B4], the affinity in experiment [1], expressed as Kd, was 2220 nM.

On to `O=Cc1ccccc1NCc1ccccc1B(O)O` [B1], for which the Kd in experiment [1] is 185 nM.
